From patent US20220110318A1, “COMPOSITIONS AND METHODS FOR POLLEN STORAGE AND PRESERVATION” (PIONEER HI-BRED INTERNATIONAL, INC., priority 2018, published 2022)

How the values were obtained:
[1] = test system: maize pollen; test: Protective compounds: prevention of pollen bursting on germination media; format: cell-based; settings: loose pollen soaked 20 minutes, compared with fresh pollen without protection
Protocol: In this example, various putative protective compounds were evaluated for their efficacy in preventing pollen from bursting on germination media. Nine different chemical treatments were applied to loose pollen shed from maize plants. Pollen was soaked in chemical solution for 20 minutes and then placed on media to observe the impact on pollen viability and compared with fresh pollen without protection as control.

[2] = test system: maize pollen; test: Pollen tube formation with germination media comprising surfactant; format: cell-based; settings: surfactant at both 0.01% and 0.1% in germination media, pollen stored 1° C. for a day, within two hours
Protocol: Maize pollen was stored in 326C media with 1000 mM Sucrose and 500 mM Betaine at a pH of 9.0. Pollen was stored at 1° C. for a day. After this time period, germination medias comprising surfactant were added in amounts up to five times the volume of storage media. Surfactant conditions tested were 0.1% Tween 20, 0.01% Tween 20, 0.1% Pluronic F68, and 0.01% Pluronic F68 (final concentration). Pollen was observed microscopically prior to replacement of media and two hours after replacement. Pluronic F68, also known as poloxamer 188, is a non-ionic surfactant, a member of a class of polaxamers comprising non-ionic triblock copolymers composed of a central hydrophobic chain of polyoxypropylene flanked by two hydrophilic chains of polyoxyethylene.

Row | Molecule | Preventing pollen from bursting on germination media [1] | Pollen tube formation [2]
1 | C[S+](C)[O-] [5% DMSO, DMSO] | did not prevent pollen from bursting | 
2 | Tween 20 |  | lysis but no pollen tube formation
